The text below walks through data of patent US7763630B2 (priority 2007, dated 2010).

Test [1] deals with HIV-integrase (Human immunodeficiency virus type 1 group M subtype B, UniProt P12497). In words: HIV-Integrase Inhibition Activity (SPA strand transfer assay).
Protocol: HIV-Integrase Inhibition Activity. To evaluate in-vitro activity against HIV-integrase, 5 pmole of biotin labeled substrate DNA was bound to 100 μg of Streptavidin coated PVT SPA beads (Amersham Pharmacia Biotech). Recombinant integrase (0.26 ng) was incubated with the beads for 90 min at 37° C. Unbound enzyme was removed by washing the complex followed by addition of inhibitors and 0.1 fmol of P33 labeled target DNA. The reaction was stopped by adding EDTA to a final concentration of 10 mM. Samples were counted in TopCountNXT (Packard) and the CPM was used as a measure of integration. […] Activity equal to A refers to a compound having IC50=0.002 to 0.10 μM while B and C denote compounds having IC50=0.1 to 1.0 μM and IC50≧1.0 μM respectively.
In test [2] the test system is recombinant NL-Rluc virus. In words: Inhibition of HIV replication (NL-Rluc virus). The settings on record: Human immunodeficiency virus 1, read-out: Antiviral Activity. Format: cell-based.
The target in test [3] is purified integrase (Human immunodeficiency virus type 1 group M subtype B, UniProt P12497). Kind of test: HIV-Integrase binding assay (competition with radiolabeled compound A).
Protocol: HIV-Integrase binding assay. In this assay competitive binding experiments with test compounds and a radiolabeled integrase inhibitor (compound A) are performed against purified integrase. SPA bead/DNA/enzyme complexes were prepared as for the integrase inhibition assay except, to each well, 0.69 μl of integrase enzyme (0.42 mg/μl) was used per 2 μl of LTR DNA-attached scintillation proximity beads (stock 50 mg/ml). Binding reactions were carried out in 96-well white polystyrene assay plates (Corning, #3600). The following was added sequentially to each well: 20 μl of water or 20 μl of human serum (Cellgro Cat #35-060-CL), 5 μl of serially diluted compound (in 50% DMSO/50% integrase SPA buffer), 5 μl of [^3H]-compound I (6,000 cpm/μl in SPA buffer) and 20 μl of bead/DNA/enzyme complex. The plates were shaken for 2 hours and then allowed to sit at room temperature without shaking overnight. The [^3H]-compound I binding was measured using a Topcount scintillation counter. Cheng and Prusoff equations were used to convert the inhibition of compound 1 binding into the corresponding Ki value.

SMILES strings stand for the structures.

What is called IC50 is the midpoint of a concentration-inhibition curve. A high value points to weaker potency in that assay. Regarding `Cn1c(C2CCOC2)nc(C(=O)NCc2ccc(F)cc2)c(O)c1=O` (stereo not drawn) [Example 1, N-(4-Fluorobenzyl)-5-hydroxy-1-methyl-6-oxo-2-(tetrahydrofuran-3-yl)-1,6-dihydropyrimidine-4-carboxamide], in test [1], the IC50 lay in the range of 2 to 100 nM. The EC50 in test [2] lay in the range of 3 to 100 nM.

In turn, `Cn1c(C2CCOCC2)nc(C(=O)NCc2ccc(F)cc2)c(O)c1=O` [Example 17, N-(4-Fluorobenzyl)-5-hydroxy-1-methyl-6-oxo-2-(tetrahydro-2H-pyran-4-yl)-1,6-dihydropyrimidine-4-carboxamide] yielded an IC50 in test [1] of 2 to 100 nM. For the same molecule, in test [2], the EC50 is 3 to 100 nM.

A word on the Ki: it is a dissociation constant, usually derived from enzyme kinetics or from competition with a known ligand. A high value points to a looser hold on the target. In the case of `Cn1cnnc1-c1cc(F)ccc1CNC(=O)c1nc(C2CCOC2)n(C)c(=O)c1O` (stereo not drawn) [Example 11, N-(4-fluoro-2-(4-methyl-4H-1,2,4-triazol-3-yl)benzyl)-5-hydroxy-1-methyl-6-oxo-2-(tetrahydrofuran-3-yl)-1,6-dihydropyrimidine-4-carboxamide], the EC50 in test [2] was 3 to 100 nM. Further, the Ki in test [3] is 1 to 3 nM.

Regarding `Cn1c(C2CCOCC2)nc(C(=O)NCc2ccc(F)cc2S(C)(=O)=O)c(O)c1=O` [Example 22, N-(4-fluoro-2-(methylsulfonyl)benzyl)-5-hydroxy-1-methyl-6-oxo-2-(tetrahydro-2H-pyran-4-yl)-1,6-dihydropyrimidine-4-carboxamide], in test [2], the EC50 fell in the range of 3 to 100 nM. Moreover, the Ki in test [3] was 3 to 50 nM.

In the case of `Cn1cnnc1-c1cc(F)ccc1CNC(=O)c1nc(C2CCOCC2)n(C)c(=O)c1O` [Example 26, N-(4-fluoro-2-(4-methyl-4H-1,2,4-triazol-3-yl)benzyl)-5-hydroxy-1-methyl-6-oxo-2-(tetrahydro-2H-pyran-4-yl)-1,6-dihydropyrimidine-4-carboxamide], the EC50 in test [2] lay within 3 to 100 nM. The same molecule showed a Ki in test [3] of 1 to 3 nM.

`CSC1COCC1c1nc(C(=O)NCc2ccc(F)cc2)c(O)c(=O)n1C` (stereo not drawn) [Example 16, N-(4-Fluorobenzyl)-5-hydroxy-1-methyl-2-(4-(methylthio)tetrahydrofuran-3-yl)-6-oxo-1,6-dihydropyrimidine-4-carboxamide] came in with an IC50 in test [1] of 2 to 100 nM. Besides, the EC50 in test [2] was 3 to 100 nM.

For `Cc1ncnn1-c1cc(F)ccc1CNC(=O)c1nc(C2CCOCC2)n(C)c(=O)c1O` [Example 19, N-(4-fluoro-2-(5-methyl-1H-1,2,4-triazol-1-yl)benzyl)-5-hydroxy-1-methyl-6-oxo-2-(tetrahydro-2H-pyran-4-yl)-1,6-dihydropyrimidine-4-carboxamide], the EC50 in test [2] was in the range of 3 to 100 nM. Also, the Ki in test [3] was in the range of 3 to 50 nM.

In the case of `Cc1ncnn1-c1cc(F)ccc1CNC(=O)c1nc(C2CCOC2)n(C)c(=O)c1O` (stereo not drawn) [Example 4, N-(4-fluoro-2-(5-methyl-1H-1,2,4-triazol-1-yl)benzyl)-5-hydroxy-1-methyl-6-oxo-2-(tetrahydrofuran-3-yl)-1,6-dihydropyrimidine-4-carboxamide], the EC50 in test [2] was 3 to 100 nM. For the same molecule, the inhibition constant (Ki) in test [3] was 3 to 50 nM.

In the case of `Cn1ncnc1-c1cc(F)ccc1CNC(=O)c1nc(C2CCOCC2)n(C)c(=O)c1O` [Example 21, N-(4-fluoro-2-(1-methyl-1H-1,2,4-triazol-5-yl)benzyl)-5-hydroxy-1-methyl-6-oxo-2-(tetrahydro-2H-pyran-4-yl)-1,6-dihydropyrimidine-4-carboxamide], the EC50 in test [2] lay in the range of 3 to 100 nM. This molecule also showed an inhibitory constant (Ki) in test [3] of 1 to 3 nM.

Regarding `Cn1c(C2CCOC2)nc(C(=O)NCc2ccc(F)cc2S(C)(=O)=O)c(O)c1=O` (stereo not drawn) [Example 7, N-(4-fluoro-2-(methylsulfonyl)benzyl)-5-hydroxy-1-methyl-6-oxo-2-(tetrahydrofuran-3-yl)-1,6-dihydropyrimidine-4-carboxamide], in test [2], the EC50 was 3 to 100 nM. In test [3], this molecule returned a Ki of 3 to 50 nM.

Regarding `Cn1c(C2CCOC2)nc(C(=O)NCc2ccc(F)cc2-n2cncn2)c(O)c1=O` (stereo not drawn) [Example 3, N-(4-fluoro-2-(1H-1,2,4-triazol-1-yl)benzyl)-5-hydroxy-1-methyl-6-oxo-2-(tetrahydrofuran-3-yl)-1,6-dihydropyrimidine-4-carboxamide], the EC50 in test [2] lay within 3 to 100 nM. For the same molecule, the Ki in test [3] fell in the range of 1 to 3 nM.

Consider `Cn1c(C2CCOC2)nc(C(=O)NCc2ccccc2N2CCCCS2(=O)=O)c(O)c1=O` (stereo not drawn) [Example 8], for which, in test [2], the EC50 fell in the range of 3 to 100 nM. Also, in test [3], the Ki lay within 3 to 50 nM.

Turning to `Cc1cnnn1-c1cc(F)ccc1CNC(=O)c1nc(C2CCOCC2)n(C)c(=O)c1O` [Example 20, N-(4-fluoro-2-(5-methyl-1H-1,2,3-triazol-1-yl)benzyl)-5-hydroxy-1-methyl-6-oxo-2-(tetrahydro-2H-pyran-4-yl)-1,6-dihydropyrimidine-4-carboxamide], the EC50 in test [2] was in the range of 3 to 100 nM. In addition, in test [3], the inhibition constant (Ki) fell in the range of 3 to 50 nM.

Turning to `CN(C)S(=O)(=O)c1cc(F)ccc1CNC(=O)c1nc(C2CCOC2)n(C)c(=O)c1O` (stereo not drawn) [Example 10, N-(2-(N,N-dimethylsulfamoyl)-4-fluorobenzyl)-5-hydroxy-1-methyl-6-oxo-2-(tetrahydrofuran-3-yl)-1,6-dihydropyrimidine-4-carboxamide], the EC50 in test [2] is 3 to 100 nM. Moreover, in test [3], the inhibition constant Ki lay in the range of 3 to 50 nM.

`Cn1c(C2CCOCC2)nc(C(=O)NCc2ccc(F)cc2-n2cncn2)c(O)c1=O` [Example 18, N-(4-fluoro-2-(1H-1,2,4-triazol-1-yl)benzyl)-5-hydroxy-1-methyl-6-oxo-2-(tetrahydro-2H-pyran-4-yl)-1,6-dihydropyrimidine-4-carboxamide]: in test [2], the EC50 lay within 3 to 100 nM. Also, the inhibition constant Ki in test [3] is 3 to 50 nM.

Take `CN(C)S(=O)(=O)c1cc(F)ccc1CNC(=O)c1nc(C2CCOCC2)n(C)c(=O)c1O` [Example 23, N-(2-(N,N-dimethylsulfamoyl)-4-fluorobenzyl)-5-hydroxy-1-methyl-6-oxo-2-(tetrahydro-2H-pyran-4-yl)-1,6-dihydropyrimidine-4-carboxamide]: the EC50 in test [2] lay within 3 to 100 nM. The molecule also yielded an inhibition constant Ki in test [3] of 3 to 50 nM.

`Cn1c(C2CCOCC2)nc(C(=O)NCc2ccccc2N2CCCCS2(=O)=O)c(O)c1=O` [Example 25]: the EC50 in test [2] fell in the range of 3 to 100 nM. This molecule also had an inhibitory constant (Ki) in test [3] of 3 to 50 nM.

Turning to `COCCN1CCN(c2cc(F)ccc2CNC(=O)c2nc(C3CCOC3)n(C)c(=O)c2O)C1=O` (stereo not drawn) [Example 13, N-(4-fluoro-2-(3-(2-methoxyethyl)-2-oxoimidazolidin-1-yl)benzyl)-5-hydroxy-1-methyl-6-oxo-2-(tetrahydrofuran-3-yl)-1,6-dihydropyrimidine-4-carboxamide], the EC50 in test [2] was 3 to 100 nM. This molecule displayed a Ki in test [3] of 1 to 3 nM.

In turn, `Cc1cc(CNC(=O)c2nc(C3CCOC3)n(C)c(=O)c2O)ccc1F` (stereo not drawn) [Example 2, N-(4-Fluoro-3-methylbenzyl)-5-hydroxy-1-methyl-6-oxo-2-(tetrahydrofuran-3-yl)-1,6-dihydropyrimidine-4-carboxamide] displayed a 50% inhibitory concentration (IC50) in test [1] of 2 to 100 nM. Besides, the EC50 in test [2] lay within 3 to 100 nM.

Take `CN1CCN(c2cc(F)ccc2CNC(=O)c2nc(C3CCOC3)n(C)c(=O)c2O)C1=O` (stereo not drawn) [Example 12, N-(4-fluoro-2-(3-methyl-2-oxoimidazolidin-1-yl)benzyl)-5-hydroxy-1-methyl-6-oxo-2-(tetrahydrofuran-3-yl)-1,6-dihydropyrimidine-4-carboxamide]: the EC50 in test [2] fell in the range of 3 to 100 nM. This molecule also displayed a Ki in test [3] of 1 to 3 nM.

As for `Cc1cnnn1-c1cc(F)ccc1CNC(=O)c1nc(C2CCOC2)n(C)c(=O)c1O` (stereo not drawn) [Example 5, N-(4-fluoro-2-(5-methyl-1H-1,2,3-triazol-1-yl)benzyl)-5-hydroxy-1-methyl-6-oxo-2-(tetrahydrofuran-3-yl)-1,6-dihydropyrimidine-4-carboxamide], the EC50 in test [2] fell in the range of 3 to 100 nM. This molecule had an inhibition constant (Ki) in test [3] of 3 to 50 nM.

In the case of `Cn1ncnc1-c1cc(F)ccc1CNC(=O)c1nc(C2CCOC2)n(C)c(=O)c1O` (stereo not drawn) [Example 6, N-(4-fluoro-2-(1-methyl-1H-1,2,4-triazol-5-yl)benzyl)-5-hydroxy-1-methyl-6-oxo-2-(tetrahydrofuran-3-yl)-1,6-dihydropyrimidine-4-carboxamide], the EC50 in test [2] fell in the range of 3 to 100 nM. In test [3], this molecule showed an inhibition constant Ki of 3 to 50 nM.

In the case of `Cn1c(C2CCOC2)nc(C(=O)NCc2ccc(F)cc2N2CCN(CCO)C2=O)c(O)c1=O` (stereo not drawn) [Example 14, N-(4-fluoro-2-(3-(2-hydroxyethyl)-2-oxoimidazolidin-1-yl)benzyl)-5-hydroxy-1-methyl-6-oxo-2-(tetrahydrofuran-3-yl)-1,6-dihydropyrimidine-4-carboxamide], the EC50 in test [2] was in the range of 3 to 100 nM. In test [3], this molecule registered an inhibition constant (Ki) of 1 to 3 nM.

In turn, `Cn1c(C2COCC2O)nc(C(=O)NCc2ccc(F)cc2)c(O)c1=O` (stereo not drawn) [Example 15, N-(4-Fluorobenzyl)-5-hydroxy-2-(4-hydroxytetrahydrofuran-3-yl)-1-methyl-6-oxo-1,6-dihydropyrimidine-4-carboxamide] displayed an IC50 in test [1] of 2 to 100 nM. In addition, in test [2], the EC50 was in the range of 3 to 100 nM.
